Measurements published in US10180422B1, “Methods of treating a neuroendocrine tumor” (Scripps Health, priority 2017, dated 2019).
“Also recorded” adds a separate entry of the source.

System: neuroendocrine tumor (NET) with ETV6:NTRK3 translocation
Assay: Treatment of a NET patient with the Trk inhibitor entrectinib (case report, Example 1)
Type: in vivo, human
Conditions: for weight gain: patient
From the text: A previously healthy patient presented with progressive low back pain and 11 kg weight loss over the previous year. They were a never-smoker, occasional alcohol drinker, and an avid runner. The patient had no relevant family history of cancer.
A right upper quadrant ultrasound noted echogenic masses present in the liver. A computed tomography (CT) scan identified low-density liver lesions, adrenal masses, bulky retroperitoneal and pelvic lymphadenopathy, and diffuse bony disease. […] Multiple hypermetabolic liver lesions are seen, and innumerable lesions are seen throughout the skeleton (FIG. 1A). CT-guided biopsy of the left iliac bone reported well-differentiated neuroendocrine carcinoma (NETs), possibly from a lower GI source. […] Repeat CT-guided core biopsy of a right iliac soft tissue mass confirmed the absence of a high-grade component, consistent with the initial biopsy.
The patient received 3000 cGy of palliative radiotherapy to L1-S3 in 10 fractions for pain management followed by temozolomide and capecitabine chemotherapy.
Following chemotherapy, a tumor biopsy was obtained from the patient's lymph node, FFPE slides were prepared, and the NTRK status of the patient's NET was first analyzed by immunohistochemistry (IHC). The patient's tumor was positive for altered NTRK protein expression and the NET was subsequently analyzed by RNAseq NGS. An ETV6:NTRK3 translocation was identified in the patient's tumor and therapy was initiated with the investigational agent entrectinib, a potent oral tyrosine kinase inhibitor of TrkA, TrkB, and TrkC.

[1] = after cycle #1 (one month) of entrectinib treatment

## CN1CCN(c2ccc(C(=O)Nc3n[nH]c4ccc(Cc5cc(F)cc(F)c5)cc34)c(NC3CCOCC3)c2)CC1 [entrectinib, N-[5-(3,5-difluoro-benzyl)-1h-indazol-3-yl]-4-(4-methyl-piperazin-1-yl)-2-(tetrahydro-pyran-4-ylamino)-benzamide]
After 1 cycle of entrectinib, compared with the scan after chemotherapy (FIG. 3B vs 3A)
  axial contrast-enhanced abdominal CT, left pelvic sidewall masses: appear swollen and measure larger, but are lower in density; also recorded: appeared swollen and measured larger, but was lower in density than the previous scan
After 2 cycles of entrectinib (FIG. 1B, right proximal femur)
  FDG-PET imaging, skeleton / bony disease: improvement in the previously confluent bony disease; also recorded: clear improvement was observed in the skeleton
After 6 months (6 cycles) of entrectinib, compared with presentation (FIG. 2B vs 2A)
  octreoscan, overall disease (tumor) burden: significant overall reduction in tumor burden; also recorded: significant reduction in overall disease burden
[1]
  pain and energy levels (patient-reported): significant improvement in pain and energy levels
  weight gain: 6 kg
At 8 months on entrectinib
  clinical status (energy, activity, pain control requirements): normalized energy and activity, and markedly reduced pain control requirements
During entrectinib treatment
  response of liver metastases: some liver metastases have responded, while others have not
Patient on entrectinib up to 8 months
  adverse events: no notable adverse events
At 8 months on entrectinib, stabilized
  weight gain: 12 kg
Subsequent months of entrectinib treatment
  follow-up CT scans, pelvic nodal masses: continued shrinkage of the pelvic nodal masses
